In PMC7027498, “A small molecule chaperone rescues the stability and activity of a cancer‐associated variant of NAD(P)H:quinone oxidoreductase 1 in vitro” (Febs Letters, 2019):

Columns and labels:
[1] = target: T1, NQO1 WT (NAD(P)H:quinone oxidoreductase 1) (Homo sapiens, UniProt P15559, P187S); test: isothermal titration calorimetry; assay type: binding; details: read-out: dissociation constant
T1 construct: codon-optimised gene in pET28a, E. coli; FAD-containing homodimer
Source text: (§1) isothermal titration calorimetry on NQO1 WT (NAD(P)H:quinone oxidoreductase 1) | dissociation constants for the binding of BPPSA to the wild‐type and P187S variant

[2] = target: T2, NQO1 WT (NAD(P)H:quinone oxidoreductase 1) (Homo sapiens, UniProt P15559); test: isothermal titration calorimetry; assay type: binding; details: read-out: dissociation constant
T2 construct: codon-optimised gene in pET28a, E. coli; FAD-containing homodimer
Source text: as §1

[3] = target: T2, NQO1 WT (NAD(P)H:quinone oxidoreductase 1); test: ThermoFAD thermal shift; assay type: binding; details: 2 mM BPPSA, 50 mM HEPES pH 7.0
[4] = target: T1, NQO1 WT (NAD(P)H:quinone oxidoreductase 1); test: ThermoFAD thermal shift; assay type: binding; details: 2 mM BPPSA, 50 mM HEPES pH 7.0
[5] = target: T1, NQO1 WT (NAD(P)H:quinone oxidoreductase 1); test: NADH-menadione reductase assay, absorbance at […] nm; assay type: biochemical
[6] = target: T2, NQO1 WT (NAD(P)H:quinone oxidoreductase 1); test: NADH-menadione reductase assay, absorbance at […] nm; assay type: biochemical
[7] = target: T2, NQO1 WT (NAD(P)H:quinone oxidoreductase 1); test: crystal structure, […] Å; assay type: binding; details: co-crystal with BPPSA; FAD in all four chains

| Kd [1] | Kd [2] | increase in melting temperature [3] | increase in melting temperature [4] | IC50 [5] | IC50 [6] | Structure (SMILES) | crystal structure, 2.76 Å [7] |
| --- | --- | --- | --- | --- | --- | --- | --- |
| 20 ± 0.41 µM | 7.95 ± 0.8 µM | 1 °C | 2.5 °C | 26.2 ± 1.2 µM | 8.6 ± 1.1 µM | O=S(=O)(Nc1ccccc1Br)N1CCCC1 [BPPSA, N‐(2‐bromophenyl)pyrrolidine‐1‐sulfonamide] | – |
| – | – | – | – | – | – | Cc1cc2nc3c(=O)[nH]c(=O)nc-3n(C[C@H](O)[C@H](O)[C@H](O)COP(=O)(O)OP(=O)(O)OC[C@H]3O[C@@H](n4cnc5c(N)ncnc54)[C@H](O)[C@@H]3O)c2cc1C [FAD] | Clear residual electron density was observed for FAD bound to each of the four chains |
